Paper PMC12288460, “The Agrobacterium fabrum efflux pump PecM is produced in response to the plant exudate 4-hydroxybenzaldehyde to avoid disruption of central metabolism” (Journal of Bacteriology, 2025)

Target: T1, PecS (Agrobacterium fabrum, UniProt Q7D1T4)
T1 construct: full length, N-terminal His6-tag kept (pET100), E. coli BL21(DE3)pLysS; 18,923 Da tagged; dimer by known biology of MarR family
Test: DNase I footprinting of pecS-pecM DNA, loss of PecS protection
Settings: 86 nM PecS, 250 mM Tris pH 8.0, 100 mM NaCl, room temperature, relief of DNA binding

T1 sequence (Q7D1T4 entry or part of it): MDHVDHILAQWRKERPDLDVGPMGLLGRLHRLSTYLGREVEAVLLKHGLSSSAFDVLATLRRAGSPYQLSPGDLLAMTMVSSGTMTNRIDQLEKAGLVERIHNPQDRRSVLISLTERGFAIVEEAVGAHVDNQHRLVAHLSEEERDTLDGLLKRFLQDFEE

SMILES | DNase I footprinting of pecS-pecM DNA, loss of PecS protection (2.5 mM urate (dissolved in 0.4 M NaOH)) | DNase I footprinting of pecS-pecM DNA, loss of PecS protection (10 mM xanthine (dissolved in 0.4 M NaOH))
O=c1[nH]c(=O)c2[nH]c(=O)[nH]c2[nH]1 [urate] | This result indicates a direct interaction between these purines and PecS | 
O=c1[nH]c(=O)c2[nH]cnc2[nH]1 [xanthine] |  | This result indicates a direct interaction between these purines and PecS
